Data on 22 compounds can be found in patent US20250101062A1, “ANTIMICROBIAL PEPTIDES” (Board of Regents of the University of Nebraska, priority 2023, published 2025).

Converted amounts (≈) assume the structure as drawn. Like-named read-outs stand apart in the source and are kept apart here. Where a SMILES comes first, the peptide text is derived from it. Where no end group is shown, it is not given here. Some results are limits rather than exact numbers.

Experiment [1] deals with S. aureus USA300 LAC. Briefly: microbe, parasite or virus in culture. The experiment is classed as cell-based, Staphylococcus aureus. On the procedure:
(§1) The following resistant bacterial clinical strains were used in this study: S. aureus USA300 LAC, S. epidermidis 1457, E. coli E423-17, P. aeruginosa E411-17, K. pneumoniae E406-17, and A. baumannii B28-16. While the S. aureus USA300 strain is methicillin-resistant, most of the Gram-negative bacteria contain extended-spectrum beta-lactamase and are resistant to beta-lactam antibiotics. Peptide activity against bacteria was tested using an established lab protocol (Mishra, et al. (2017) Acta Biomater., 49:316-328). In brief, a peptide concentration gradient with twofold dilution was made in the 96-well polystyrene microplate at 10 μL per well. Bacteria were grown to the exponential phase (i.e., optical density at 600 nm≈0.5), diluted to ˜10^5 CFU/mL in different percentages of MHB, TSB, or LB, and partitioned into the 96-well microplate at 90 μL per well. […] They were diluted with autoclaved distilled water to obtain different percentages. The microplates were incubated at 37° C. overnight and read on a ChroMate™ 4300 microplate reader at 600 nm (GMI, Ramsey, MN). The peptide concentration in the wells without bacterial growth is the MIC. As is the convention, MIC values were represented as ranges.
(§2) For pH effects on peptide activity, the pH of the medium was adjusted to a targeted pH for the autoclave and then remeasured at room temperature. For salt and serum effects on peptide activity, stock NaCl solution or human serum was added to the media.
(§3) Peptide activity against bacteria were tested using the CLSI standard procedure with minor modifications (Clinical and Laboratory Standards Institute (2018) Performance standards for antimicrobial susceptibility testing, 9th ed.; Mishra, et al. (2019) Proc. Natl. Acad. Sci., 116(27):13517-13522). In brief, a peptide concentration gradient with twofold dilution was made in the 96-well polystyrene microplate at 10 μL per well. Bacteria were grown to the exponential phase (i.e., optical density at 600 nm≈0.5), diluted to ˜10^5 CFU/mL in MHB, and partitioned into the 96-well microplate at 90 μL per well. The microplates were incubated at 37° C. overnight and read on a ChroMate® 4300 Microplate Reader at 600 nm (GMI, Ramsey, MN). The peptide concentration in the wells without bacterial growth is the minimal inhibitory concentration (MIC). As the convention, MIC values were represented as ranges.
(§4) For pH effects on peptide activity, the pH of the medium was adjusted to a targeted pH for autoclave and then remeasured at room temperature. For salt and serum effects on peptide activity, stock NaCl solution or human serum were added to the media.

Experiment [2] deals with E. coli E423-17. The format is cell-based, Escherichia coli. On the procedure:
as §1, §2, §3, §4

The test system of experiment [3] is K. pneumoniae E406-17. The format is cell-based, Klebsiella pneumoniae. The method, then:
as §1, §3

The subject of experiment [4] is A. baumannii B28-16. The experiment is classed as cell-based, Acinetobacter baumannii. The note with it: B28-16. The method, then: as §1, §3
In experiment [5] the test system is P. aeruginosa E411-17. Briefly: microbe, parasite or virus in culture. The experiment is classed as cell-based, Pseudomonas aeruginosa. The note with it: for MIC: read-out: Antimicrobial activity (MIC). The method, then:
as §1, §2, §3, §4

Experiment [6] relates to E. coli. The note with it: data from the antimicrobial peptide database; cited from earlier work.
Experiment [7] deals with S. epidermidis 1457. The experiment is described as follows: microbe, parasite or virus in culture. The format is cell-based, Staphylococcus epidermidis. The note with it: read-out: Antimicrobial activity (MIC) S. epidermidis 1457. On the procedure: as §1, §3
A short description of experiment [8]: Effect of MHB dilution on antibacterial activity of a panel of antibiotics. The experiment is classed as cell-based. The note with it: MHB from 100 to 12.5%. The method, then: FIGS. 2A-2D show biofilm disruption activity of human LL-37 (FIGS. 2A and 2B) and 17BIPHE2 (FIGS. 2C and 2D) against the 24 hour preformed biofilms of S. aureus USA300 LAC in different MHB media: 12.5% MHB (FIGS. 2A and 2C) and 100% MHB (FIGS. 2B and 2D). FIGS. 2E-2H show the treatment outcome of LL-37 (FIGS. 2E and 2F) and 17BIPHE2 (FIGS. 2G and 2H) against the 24-hour preformed biofilms of E. coli E423-17 in different MHB media: 12.5% MHB (FIGS. 2E and 2G) and 100% MHB (FIGS. 2F and 2H). […] Growth curves of S. aureus USA 300 LAC (FIGS. 2J-2K) and P. aeruginosa 152 (FIGS. 2L-2M) in 12.5%, 25%, 50% and 100% MHB or TSB medium (curves from bottom to top).
The effects of MHB dilution on the antimicrobial activity of a panel of antibiotics was also compared (FIG. 2I).

[9] abbreviates: USA300, read-out: Antimicrobial activity (MIC).

Turning to KRIVQRIK-NH2 [W538], the results for the “Antimicrobial activity (MIC)” value in experiment [1] (MHB 12.5%), in experiment [2] (E423-17) and in experiment [2] (MHB 12.5%) were more than 64 µM, more than 64 µM and 8 µM, respectively. Also, the “Activity (MIC) S. aureus” value in experiment [1] (USA300) was more than 32 µM. Further, the MIC in experiment [1] (setting [9]) is more than 64 µM. Besides, in experiment [2] (E423-17), the “Activity (MIC) E.coli” value is more than 32 µM. The “Activity (MIC) K. pneumoniae” value in experiment [3] is more than 32 µM. Moreover, the “Activity (MIC) A. baumannii” value in experiment [4] was more than 32 µM. In addition, the “Activity (MIC) P. aeruginosa” value in experiment [5] (E411-17) was more than 32 µM.
“RWKIFKRIEKVGRNVRDGVIKAGPAVAVLGQAKALGK (listed as Phyllodes eyndhovii) [Peyn-cec]”: the “MIC against E. coli” value in experiment [6] was 8 µg/mL.
For “KEKIGKEFKR-NH2 (C-terminus assumed) [KE-10]”, the MIC in experiment [1] (setting [9]) was more than 64 µM. The “Antimicrobial activity (MIC)” value in experiment [2] (E423-17) was more than 64 µM.
With “FKRIVQRIKDFLRNLV [FK-16, reference compound]”, the “Antimicrobial activity (MIC)” value in experiment [1] (MHB 12.5%), in experiment [1] (MHB 100%), in experiment [2] (MHB 12.5%) and in experiment [2] (MHB 100%) was “active” each time.
As for “GWLKKIGKKIERVGQHTRDATIQGLGIAQQAANVAATAR (Drosophila melanogaster) [Sarcotoxin IA]”, the “MIC against E. coli” value in experiment [6] was 0.2 to 6.3 µg/mL.
Take “NGNLLGGLLRPVLGVVKGLTGGLGKK (Pleurodema thaul) [Thaulin-1]”: the “MIC against E. coli” value in experiment [6] was 62.5 µg/mL.
In the case of “RWKIFKKIEKVGQNIRDGIVKAGPAVAVVGQAATI (listed as Bombyx mori) [CM4]”, the “MIC against E. coli” value in experiment [6] is 12 µM.
With `CCCCCCCCCC(=O)N[C@H](CCCCN)C(=O)N[C@H](CCCNC(=N)N)C(=O)N[C@@H](C(=O)N[C@@H](C(=O)N[C@H](CCC(N)=O)C(=O)N[C@H](CCCNC(=N)N)C(=O)N[C@@H](C(=O)N[C@H](CCCCN)C(N)=O)[C@H](C)CC)C(C)C)[C@H](C)CC` [C10-KR8, reference compound] (HELM PEPTIDE1{[CCCCCCCCCC(=O)[*:2]].[dK].[dR].[dI].[dV].[dQ].[dR].[dI].[dK].[am]}$$$$V2.0; N-terminus and C-terminus assumed), the MIC in experiment [1] (USA300, pH 6.21, read-out: Antimicrobial activity (MIC)) is recorded as 8 µM (≈ 9.55 µg/mL); in experiment [1] (USA300, pH 7.22, read-out: Antimicrobial activity (MIC)) it was 4 µM (≈ 4.77 µg/mL); in experiment [1] (USA300, pH 8.13, read-out: Antimicrobial activity (MIC)), 2 µM (≈ 2.39 µg/mL); in experiment [1] (setting [9]) it was 4 µM (≈ 4.77 µg/mL); in experiment [1] (USA300, read-out: Antimicrobial activity (MIC) S. aureus USA300), 4 µM (≈ 4.77 µg/mL); in experiment [7] it was 4 µM (≈ 4.77 µg/mL). Besides, the MIC in experiment [5] (E411-17, pH 6.21) is reported as 16 µM (≈ 19.1 µg/mL); in experiment [5] (E411-17, pH 8.13), 4 µM (≈ 4.77 µg/mL); in experiment [5] (E411-17), 16 µM (≈ 19.1 µg/mL). The “Antimicrobial activity (MIC) E. coli E423-17” value in experiment [2] (E423-17) stood at 8 µM. The “Antimicrobial activity (MIC) A. baumannii B28-16” value in experiment [4] was determined as 4 µM. The “Antimicrobial activity (MIC) P. aeruginosa E411-17” value in experiment [5] (E411-17) stood at 8 µM. Moreover, the “Antimicrobial activity (MIC)” value in experiment [5] (E411-17, pH 7.22) lay within 4 to 8 µM.
For the compound “GVFDIIKGAGKQLIARAMGKIAEKVGLNKDGN (listed as Leptodactylus pustulatus) [Ocellatin-PT8]”, the “MIC against E. coli” value in experiment [6] is 60 µM.
In the case of `C/C(=C\C(=O)OCCCCCCCCC(=O)O)C[C@@H]1OC[C@H](C[C@@H]2O[C@H]2[C@@H](C)[C@H](C)O)[C@@H](O)[C@H]1O` [Muporicin], the “change of MIC / activity” value in experiment [1] (MRSA in MHB, 10% human serum) was “fourfold”. Also, the “Antimicrobial activity (MIC)” value in experiment [1] (MRSA in MHB, 10% serum) was determined as 4 µM; in experiment [1] (MRSA in MHB, 20% serum) it was 4 µM; in experiment [1] (MRSA in MHB, NaCl (150 mM)), 1 µM; in experiment [1] (MRSA in MHB, pH 6.3), 0.5 µM; in experiment [1] (MRSA in MHB, pH 7.2), 1 µM. In experiment [8], the “change in MIC with dilution of MHB” value is “essentially no changes”.
For KRWWQRWK-NH2 [W541], the “Activity (MIC) S. aureus” value in experiment [1] (USA300) was more than 32 µM. For the same compound, in experiment [2] (KR-8 series, Table 3), the “Activity (MIC) E.coli” value came to 8 µM. For the same compound, in experiment [3], the “Activity (MIC) K. pneumoniae” value was more than 32 µM. In experiment [4], the “Activity (MIC) A. baumannii” value is more than 32 µM. Further, in experiment [5] (E411-17), the “Activity (MIC) P. aeruginosa” value was more than 32 µM.
With “RKSKEKIGK-NH2 (C-terminus assumed) [RK-9]”, the MIC in experiment [1] (setting [9]) was more than 64 µM. In addition, the “Antimicrobial activity (MIC)” value in experiment [2] (E423-17) was more than 64 µM.
Regarding “GIWSSIKNLASKAWNSDIGQSLRNKAAGAINKFVADKIGVTPSQAAS (vaejovis mexicanus) [Vejovine]”, the “MIC against E. coli” value in experiment [6] is 4.4 to 20 µM.
Regarding “LRNLVPRTES-NH2 (C-terminus assumed) [LR-10]”, the MIC in experiment [1] (setting [9]) is on record as more than 64 µM. Moreover, the “Antimicrobial activity (MIC)” value in experiment [2] (E423-17) is more than 64 µM.
On to “LLGDFFRKSK-NH2 (C-terminus assumed) [LL-10]”, for which, in experiment [1] (setting [9]), the MIC is given as more than 64 µM.
In the case of “RWKFGKKLERMGKRIFKATEKGLPVATGVAALARG (Tunga penetrans) [Tpen-cec]”, in experiment [6], the “MIC against E. coli” value is 8 µg/mL.
Regarding “KRIVQRIKDFLR-NH2 (C-terminus assumed) [KR-12]”, the “Antimicrobial activity (MIC)” value is “active” in experiment [1] (MHB 12.5%), “did not display any activity” in experiment [1] (MHB 100%), 4 to 8 µM in experiment [1] (USA300) and “active” in experiment [2] (MHB 100%). The MIC in experiment [1] (setting [9]) was determined as 4 µM.
Take KRIWQRIK-NH2 [W539]: the “Activity (MIC) S. aureus” value in experiment [1] (USA300) was more than 32 µM. Further, the “Activity (MIC) E.coli” value in experiment [2] (E423-17) is more than 32 µM. For the same compound, the “Activity (MIC) K. pneumoniae” value in experiment [3] was more than 32 µM. Moreover, the “Activity (MIC) A. baumannii” value in experiment [4] is more than 32 µM. The “Activity (MIC) P. aeruginosa” value in experiment [5] (E411-17) is more than 32 µM.
As for “KWKFGKKLERIGQNVFRAAEKVLPVATGYAQLPATLAGAKQG (listed as Panorpa sp.) [Pvul-cec]”, the “MIC against E. coli” value in experiment [6] was 8 µg/mL.
Consider “SWLSKTAKKLENSAKKRIAEGIAIAIQGGPR (listed as Anisakis sp.) [Anisaxin-3]”, for which, in experiment [6], the “MIC against E. coli” value was 0.5 to 1.0 µM.
Take “GGLKKLGKKLEGAGKRVFKASEKALPVVVGIKAIGK (listed as Aedes aegypti) [Aedesin]”: the “MIC against E. coli” value in experiment [6] was 2 to 4 µg/mL.
As for KRWWQWWK-NH2 [W542], in experiment [3], the “Activity (MIC) K. pneumoniae” value was more than 32 µM. Besides, the “Activity (MIC) P. aeruginosa” value in experiment [5] (E411-17) is 4 to 8 µM.
